# ChEMBL document CHEMBL2034919 (Eur J Med Chem, 2012)
# pKi: −log10 of the molar value.
# Target: Sodium-dependent serotonin transporter (Homo sapiens, UniProt P31645)
# Conditions: not given; call rule not given here
# Sodium-dependent serotonin transporter, sequence (P31645 whole entry): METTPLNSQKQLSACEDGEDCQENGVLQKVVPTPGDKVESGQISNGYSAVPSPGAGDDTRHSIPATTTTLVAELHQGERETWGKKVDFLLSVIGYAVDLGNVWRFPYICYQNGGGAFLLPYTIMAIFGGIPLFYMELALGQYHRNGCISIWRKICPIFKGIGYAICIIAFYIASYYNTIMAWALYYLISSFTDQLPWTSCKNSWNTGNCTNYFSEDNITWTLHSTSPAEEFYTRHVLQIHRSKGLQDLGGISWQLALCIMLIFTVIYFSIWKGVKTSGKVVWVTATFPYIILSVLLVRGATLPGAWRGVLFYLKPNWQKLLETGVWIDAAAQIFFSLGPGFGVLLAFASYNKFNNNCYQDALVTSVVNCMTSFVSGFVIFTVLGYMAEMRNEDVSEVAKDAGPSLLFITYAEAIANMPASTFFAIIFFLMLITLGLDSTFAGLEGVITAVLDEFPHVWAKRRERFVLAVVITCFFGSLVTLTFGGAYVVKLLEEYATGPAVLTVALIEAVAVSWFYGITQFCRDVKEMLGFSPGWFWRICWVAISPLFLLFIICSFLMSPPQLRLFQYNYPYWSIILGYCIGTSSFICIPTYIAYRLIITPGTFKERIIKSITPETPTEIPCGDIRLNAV
row,Structure (SMILES),Ki
1,O=C(CCCN1CCN(c2ncccn2)CC1)c1nc2ccccc2s1,Not Active
2,c1cnc(N2CCN(CCCCc3nc4ccccc4s3)CC2)nc1,Not Active
3,O=C(CCCCN1CCN(c2ncccn2)CC1)c1nc2ccccc2s1,Not Active

# Same assay, conditions: read-out: Ki
row,Structure (SMILES),pKi
1,Clc1ccc(N2CCCN(CCCCc3nc4ccccc4s3)CC2)cc1,7.19
2,Clc1ccc(N2CCCN(CCCc3nc4ccccc4s3)CC2)cc1,7.47
3,O=C(CCCCN1CCCN(c2ccc(Cl)cc2)CC1)c1nc2ccccc2s1,7.19
4,O=C(CCCN1CCCN(c2ccc(Cl)cc2)CC1)c1nc2ccccc2s1,8.28
5,Clc1ccc(N2CCN(CCCc3nc4ccccc4s3)CC2)cc1,5.93
6,Clc1ccc(N2CCN(CCCCc3nc4ccccc4s3)CC2)cc1,6.78
7,OC1(c2ccc(Cl)cc2)CCN(CCCCc2nc3ccccc3s2)CC1,6.04
8,O=C(CCCCN1CCC(n2c(=O)[nH]c3cc(Cl)ccc32)CC1)c1nc2ccccc2s1,6.25
9,c1ccc2c(c1)CCN(CCCCc1nc3ccccc3s1)C2,5.88
10,c1ccc2c(c1)CN(CCCCc1nc3ccccc3s1)C2,6.73
11,O=C(CCCN1CCN(c2ccc(Cl)cc2)CC1)c1nc2ccccc2s1,6.31
12,O=C(CCCN1CCN(c2ccccc2)CC1)c1nc2ccccc2s1,< 5.00
13,O=C(CCCCN1CCC2(CC1)C(=O)NCN2c1ccccc1)c1nc2ccccc2s1,6.55
14,O=C(CCCCN1CCN(c2ccc(Cl)cc2)CC1)c1nc2ccccc2s1,7.09
15,O=C(CCCCN1CCC(c2ccccc2)CC1)c1nc2ccccc2s1,7.19

# Target: 5-hydroxytryptamine receptor 2A (Homo sapiens, UniProt P28223)
# Conditions: not given
# 5-hydroxytryptamine receptor 2A, sequence (P28223 whole entry): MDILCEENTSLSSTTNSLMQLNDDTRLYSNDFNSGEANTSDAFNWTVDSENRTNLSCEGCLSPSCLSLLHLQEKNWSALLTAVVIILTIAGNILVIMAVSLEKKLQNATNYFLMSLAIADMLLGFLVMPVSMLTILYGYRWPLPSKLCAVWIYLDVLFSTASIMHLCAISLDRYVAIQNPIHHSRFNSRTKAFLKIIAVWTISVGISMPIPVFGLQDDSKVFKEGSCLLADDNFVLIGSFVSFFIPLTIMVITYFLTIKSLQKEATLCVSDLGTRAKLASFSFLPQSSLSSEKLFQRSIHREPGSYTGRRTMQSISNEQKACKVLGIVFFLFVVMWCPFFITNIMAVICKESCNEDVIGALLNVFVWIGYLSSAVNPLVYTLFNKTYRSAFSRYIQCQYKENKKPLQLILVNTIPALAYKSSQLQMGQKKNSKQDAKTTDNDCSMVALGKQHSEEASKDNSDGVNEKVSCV
row,Structure (SMILES),pKi
1,Clc1ccc(N2CCN(CCCc3nc4ccccc4s3)CC2)cc1,7.44
2,Clc1ccc(N2CCN(CCCCc3nc4ccccc4s3)CC2)cc1,6.88
3,OC1(c2ccc(Cl)cc2)CCN(CCCCc2nc3ccccc3s2)CC1,5.37
4,O=C(CCCCN1CCC(n2c(=O)[nH]c3cc(Cl)ccc32)CC1)c1nc2ccccc2s1,5.81
5,c1cnc(N2CCN(CCCCc3nc4ccccc4s3)CC2)nc1,6.65
6,c1ccc2c(c1)CCN(CCCCc1nc3ccccc3s1)C2,5.42
7,c1ccc2c(c1)CN(CCCCc1nc3ccccc3s1)C2,< 5.00
8,O=C(CCCN1CCN(c2ccc(Cl)cc2)CC1)c1nc2ccccc2s1,5.70
9,O=C(CCCN1CCN(c2ccccc2)CC1)c1nc2ccccc2s1,< 5.00
10,O=C(CCCCN1CCC2(CC1)C(=O)NCN2c1ccccc1)c1nc2ccccc2s1,5.43
11,O=C(CCCCN1Cc2ccccc2C1)c1nc2ccccc2s1,< 5.00
12,O=C(CCCCN1CCN(c2ccc(Cl)cc2)CC1)c1nc2ccccc2s1,6.28
13,O=C(CCCCN1CCC(c2ccccc2)CC1)c1nc2ccccc2s1,8.47

# Target: 5-hydroxytryptamine receptor 7 (Homo sapiens, UniProt P34969)
# Conditions: not given
# 5-hydroxytryptamine receptor 7, sequence (P34969 whole entry): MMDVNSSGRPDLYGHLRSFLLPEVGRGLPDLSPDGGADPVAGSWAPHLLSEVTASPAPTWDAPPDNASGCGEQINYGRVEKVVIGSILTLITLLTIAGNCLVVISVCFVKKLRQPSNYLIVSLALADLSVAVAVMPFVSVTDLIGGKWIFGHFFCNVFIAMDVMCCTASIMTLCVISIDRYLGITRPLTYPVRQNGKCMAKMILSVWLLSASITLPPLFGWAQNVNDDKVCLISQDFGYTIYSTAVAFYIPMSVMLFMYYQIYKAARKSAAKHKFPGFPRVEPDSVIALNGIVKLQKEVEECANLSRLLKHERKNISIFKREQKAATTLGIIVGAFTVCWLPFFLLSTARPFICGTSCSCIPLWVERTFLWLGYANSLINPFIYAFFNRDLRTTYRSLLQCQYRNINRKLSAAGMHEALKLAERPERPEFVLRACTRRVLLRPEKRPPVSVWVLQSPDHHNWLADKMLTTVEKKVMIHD
row,Structure (SMILES),Ki
1,O=C(CCCN1CCN(c2ccc(Cl)cc2)CC1)c1nc2ccccc2s1,Not Active
2,O=C(CCCN1CCN(c2ccccc2)CC1)c1nc2ccccc2s1,Not Active

# Same assay, conditions: read-out: Ki
row,Structure (SMILES),pKi
1,Clc1ccc(N2CCCN(CCCCc3nc4ccccc4s3)CC2)cc1,6.38
2,Clc1ccc(N2CCCN(CCCc3nc4ccccc4s3)CC2)cc1,5.69
3,O=C(CCCCN1CCCN(c2ccc(Cl)cc2)CC1)c1nc2ccccc2s1,5.55
4,O=C(CCCN1CCCN(c2ccc(Cl)cc2)CC1)c1nc2ccccc2s1,6.45
5,Clc1ccc(N2CCN(CCCc3nc4ccccc4s3)CC2)cc1,6.10
6,Clc1ccc(N2CCN(CCCCc3nc4ccccc4s3)CC2)cc1,6.48
7,OC1(c2ccc(Cl)cc2)CCN(CCCCc2nc3ccccc3s2)CC1,6.01
8,c1cnc(N2CCN(CCCCc3nc4ccccc4s3)CC2)nc1,6.64
9,c1ccc2c(c1)CCN(CCCCc1nc3ccccc3s1)C2,7.45
10,c1ccc2c(c1)CN(CCCCc1nc3ccccc3s1)C2,6.68
11,O=C(CCCCN1CCC2(CC1)C(=O)NCN2c1ccccc1)c1nc2ccccc2s1,6.29
12,O=C(CCCCN1CCN(c2ccc(Cl)cc2)CC1)c1nc2ccccc2s1,5.54
13,O=C(CCCCN1CCC(c2ccccc2)CC1)c1nc2ccccc2s1,6.97

# Target: D(2) dopamine receptor (Homo sapiens, UniProt P14416)
# Conditions: not given
# D(2) dopamine receptor, sequence (P14416 whole entry): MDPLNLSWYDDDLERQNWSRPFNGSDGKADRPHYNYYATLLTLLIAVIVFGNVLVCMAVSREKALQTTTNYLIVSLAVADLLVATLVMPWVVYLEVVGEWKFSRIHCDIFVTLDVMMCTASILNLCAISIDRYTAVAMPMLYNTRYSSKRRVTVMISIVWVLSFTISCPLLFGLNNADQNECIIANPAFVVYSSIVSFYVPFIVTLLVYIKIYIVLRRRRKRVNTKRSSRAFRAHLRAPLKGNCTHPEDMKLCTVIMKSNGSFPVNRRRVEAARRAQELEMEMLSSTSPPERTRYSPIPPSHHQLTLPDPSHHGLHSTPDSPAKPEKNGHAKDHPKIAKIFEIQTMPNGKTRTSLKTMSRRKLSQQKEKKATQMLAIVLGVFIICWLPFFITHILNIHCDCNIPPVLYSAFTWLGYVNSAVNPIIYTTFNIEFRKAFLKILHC
row,Structure (SMILES),pKi
1,Clc1ccc(N2CCN(CCCc3nc4ccccc4s3)CC2)cc1,5.63
2,Clc1ccc(N2CCN(CCCCc3nc4ccccc4s3)CC2)cc1,6.66
3,OC1(c2ccc(Cl)cc2)CCN(CCCCc2nc3ccccc3s2)CC1,6.70
4,O=C(CCCN1CCC(c2ccccc2)CC1)c1nc2ccccc2s1,6.28
5,O=C(CCCCN1CCC(n2c(=O)[nH]c3cc(Cl)ccc32)CC1)c1nc2ccccc2s1,6.66
6,c1ccc2c(c1)CCN(CCCCc1nc3ccccc3s1)C2,7.51
7,c1ccc2c(c1)CN(CCCCc1nc3ccccc3s1)C2,6.00
8,O=C(CCCN1CCN(c2ccc(Cl)cc2)CC1)c1nc2ccccc2s1,5.08
9,O=C(CCCN1CCN(c2ccccc2)CC1)c1nc2ccccc2s1,< 5.00
10,O=C(CCCCN1CCN(c2ccc(Cl)cc2)CC1)c1nc2ccccc2s1,5.32
11,O=C(CCCCN1CCC(c2ccccc2)CC1)c1nc2ccccc2s1,6.19
12,N#Cc1ccc2[nH]cc(CCCCN3CCN(c4ccc5oc(C(N)=O)cc5c4)CC3)c2c1 [VILAZODONE],6.18

# Target: T1, D(4) dopamine receptor (Rattus norvegicus, UniProt P30729)
# T1 sequence (P30729 whole entry): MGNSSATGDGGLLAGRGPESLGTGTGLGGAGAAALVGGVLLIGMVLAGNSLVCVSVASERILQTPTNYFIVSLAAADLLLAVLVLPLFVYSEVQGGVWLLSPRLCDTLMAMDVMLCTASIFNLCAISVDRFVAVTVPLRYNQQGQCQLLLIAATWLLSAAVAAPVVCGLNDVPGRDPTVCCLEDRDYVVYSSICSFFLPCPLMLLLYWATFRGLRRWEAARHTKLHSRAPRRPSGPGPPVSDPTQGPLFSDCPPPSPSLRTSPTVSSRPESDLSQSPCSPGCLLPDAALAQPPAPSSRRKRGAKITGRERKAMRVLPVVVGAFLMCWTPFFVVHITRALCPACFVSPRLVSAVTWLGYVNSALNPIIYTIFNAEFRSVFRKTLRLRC
# Conditions: not given
row,Structure (SMILES),Ki
1,O=C(CCCN1CCN(c2ccccc2)CC1)c1nc2ccccc2s1,Not Active

# Same assay, conditions: read-out: Ki
row,Structure (SMILES),pKi
1,Clc1ccc(N2CCN(CCCc3nc4ccccc4s3)CC2)cc1,7.51
2,Clc1ccc(N2CCN(CCCCc3nc4ccccc4s3)CC2)cc1,8.40
3,OC1(c2ccc(Cl)cc2)CCN(CCCCc2nc3ccccc3s2)CC1,6.85
4,O=C(CCCN1CCC(c2ccccc2)CC1)c1nc2ccccc2s1,7.35
5,O=C(CCCN1CCN(c2ncccn2)CC1)c1nc2ccccc2s1,7.29
6,O=C(CCCCN1CCC(n2c(=O)[nH]c3cc(Cl)ccc32)CC1)c1nc2ccccc2s1,5.77
7,c1cnc(N2CCN(CCCCc3nc4ccccc4s3)CC2)nc1,9.10
8,c1ccc2c(c1)CCN(CCCCc1nc3ccccc3s1)C2,7.18
9,c1ccc2c(c1)CN(CCCCc1nc3ccccc3s1)C2,6.85
10,O=C(CCCN1CCN(c2ccc(Cl)cc2)CC1)c1nc2ccccc2s1,6.47
11,O=C(CCCCN1CCC2(CC1)C(=O)NCN2c1ccccc1)c1nc2ccccc2s1,6.79
12,O=C(CCCCN1Cc2ccccc2C1)c1nc2ccccc2s1,6.29
13,O=C(CCCCN1CCN(c2ccc(Cl)cc2)CC1)c1nc2ccccc2s1,7.00
14,O=C(CCCCN1CCN(c2ccccc2)CC1)c1nc2ccccc2s1,6.98
15,O=C(CCCCN1CCC(c2ccccc2)CC1)c1nc2ccccc2s1,6.74

# Target: T2, 5-hydroxytryptamine receptor 1A (Homo sapiens, UniProt P08908)
# T2 sequence (P08908 whole entry): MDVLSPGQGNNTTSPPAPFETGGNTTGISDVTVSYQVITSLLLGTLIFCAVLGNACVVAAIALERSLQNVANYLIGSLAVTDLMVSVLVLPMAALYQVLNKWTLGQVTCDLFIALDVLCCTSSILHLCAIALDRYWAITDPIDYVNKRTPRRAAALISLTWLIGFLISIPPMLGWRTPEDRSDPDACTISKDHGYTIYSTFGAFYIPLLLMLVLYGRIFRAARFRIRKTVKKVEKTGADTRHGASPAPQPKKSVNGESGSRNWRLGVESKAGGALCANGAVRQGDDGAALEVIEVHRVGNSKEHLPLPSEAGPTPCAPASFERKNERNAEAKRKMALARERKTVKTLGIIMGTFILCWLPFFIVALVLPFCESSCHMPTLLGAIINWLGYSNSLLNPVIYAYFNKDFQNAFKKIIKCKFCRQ
# Conditions: not given
row,Structure (SMILES),pKi
1,Clc1ccc(N2CCN(CCCc3nc4ccccc4s3)CC2)cc1,6.51
2,Clc1ccc(N2CCN(CCCCc3nc4ccccc4s3)CC2)cc1,7.04
3,OC1(c2ccc(Cl)cc2)CCN(CCCCc2nc3ccccc3s2)CC1,6.11
4,O=C(CCCN1CCC(c2ccccc2)CC1)c1nc2ccccc2s1,7.07
5,O=C(CCCN1CCN(c2ncccn2)CC1)c1nc2ccccc2s1,7.20
6,O=C(CCCCN1CCC(n2c(=O)[nH]c3cc(Cl)ccc32)CC1)c1nc2ccccc2s1,6.60
7,c1ccc2c(c1)CCN(CCCCc1nc3ccccc3s1)C2,8.29
8,c1ccc2c(c1)CN(CCCCc1nc3ccccc3s1)C2,6.95
9,O=C(CCCN1CCN(c2ccc(Cl)cc2)CC1)c1nc2ccccc2s1,< 5.00
10,O=C(CCCN1CCN(c2ccccc2)CC1)c1nc2ccccc2s1,6.46
11,O=C(CCCCN1CCC2(CC1)C(=O)NCN2c1ccccc1)c1nc2ccccc2s1,6.99
12,O=C(CCCCN1CCN(c2ccc(Cl)cc2)CC1)c1nc2ccccc2s1,7.55
13,O=C(CCCCN1CCN(c2ncccn2)CC1)c1nc2ccccc2s1,8.44
14,O=C(CCCCN1CCN(c2ccccc2)CC1)c1nc2ccccc2s1,8.44
15,O=C(CCCCN1CCC(c2ccccc2)CC1)c1nc2ccccc2s1,8.14

# Target: T3, 5-hydroxytryptamine receptor 2C (Homo sapiens, UniProt P28335)
# T3 sequence (P28335 whole entry): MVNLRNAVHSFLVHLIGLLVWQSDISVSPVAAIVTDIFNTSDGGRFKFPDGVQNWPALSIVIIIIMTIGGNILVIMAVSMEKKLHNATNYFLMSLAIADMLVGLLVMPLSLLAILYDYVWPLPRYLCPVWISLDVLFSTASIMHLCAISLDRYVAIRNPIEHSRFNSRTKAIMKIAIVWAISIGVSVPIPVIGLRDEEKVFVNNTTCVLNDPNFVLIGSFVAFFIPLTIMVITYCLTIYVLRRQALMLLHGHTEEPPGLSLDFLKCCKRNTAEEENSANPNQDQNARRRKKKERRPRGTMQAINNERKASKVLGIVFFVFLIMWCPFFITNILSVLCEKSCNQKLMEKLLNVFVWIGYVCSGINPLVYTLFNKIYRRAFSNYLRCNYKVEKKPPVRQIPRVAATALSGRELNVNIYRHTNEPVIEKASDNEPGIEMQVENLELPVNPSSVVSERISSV
# Conditions: not given
row,Structure (SMILES),pKi
1,Clc1ccc(N2CCN(CCCc3nc4ccccc4s3)CC2)cc1,5.33
2,Clc1ccc(N2CCN(CCCCc3nc4ccccc4s3)CC2)cc1,5.21
3,c1cnc(N2CCN(CCCCc3nc4ccccc4s3)CC2)nc1,< 5.00
4,c1ccc2c(c1)CCN(CCCCc1nc3ccccc3s1)C2,5.20
5,O=C(CCCCN1CCC(c2ccccc2)CC1)c1nc2ccccc2s1,5.43

# Target: Sodium-dependent dopamine transporter (Homo sapiens, UniProt Q01959)
# Conditions: not given
# Sodium-dependent dopamine transporter, sequence (Q01959 whole entry): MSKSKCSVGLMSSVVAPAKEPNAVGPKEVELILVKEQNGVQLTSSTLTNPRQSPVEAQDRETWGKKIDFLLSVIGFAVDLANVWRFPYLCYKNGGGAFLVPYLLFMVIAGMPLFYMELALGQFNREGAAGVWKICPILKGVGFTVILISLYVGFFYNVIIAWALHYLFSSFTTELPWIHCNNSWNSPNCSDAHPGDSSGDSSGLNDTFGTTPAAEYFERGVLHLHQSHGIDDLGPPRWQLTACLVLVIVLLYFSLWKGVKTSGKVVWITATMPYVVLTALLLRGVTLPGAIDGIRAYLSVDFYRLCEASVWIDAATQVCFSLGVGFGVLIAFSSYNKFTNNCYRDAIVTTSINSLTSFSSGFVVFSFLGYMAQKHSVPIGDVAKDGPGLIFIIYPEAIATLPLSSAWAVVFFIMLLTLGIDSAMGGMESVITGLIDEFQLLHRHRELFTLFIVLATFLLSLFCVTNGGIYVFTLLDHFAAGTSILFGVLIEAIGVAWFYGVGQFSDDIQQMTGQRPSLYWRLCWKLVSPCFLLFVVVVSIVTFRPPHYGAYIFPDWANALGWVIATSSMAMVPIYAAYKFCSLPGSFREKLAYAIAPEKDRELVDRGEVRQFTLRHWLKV
row,Structure (SMILES),pKi
1,O=C(CCCCN1CCN(c2ccc(Cl)cc2)CC1)c1nc2ccccc2s1,5.32

# Target: Histamine H1 receptor (Homo sapiens, UniProt P35367)
# Conditions: not given
# Histamine H1 receptor, sequence (P35367 whole entry): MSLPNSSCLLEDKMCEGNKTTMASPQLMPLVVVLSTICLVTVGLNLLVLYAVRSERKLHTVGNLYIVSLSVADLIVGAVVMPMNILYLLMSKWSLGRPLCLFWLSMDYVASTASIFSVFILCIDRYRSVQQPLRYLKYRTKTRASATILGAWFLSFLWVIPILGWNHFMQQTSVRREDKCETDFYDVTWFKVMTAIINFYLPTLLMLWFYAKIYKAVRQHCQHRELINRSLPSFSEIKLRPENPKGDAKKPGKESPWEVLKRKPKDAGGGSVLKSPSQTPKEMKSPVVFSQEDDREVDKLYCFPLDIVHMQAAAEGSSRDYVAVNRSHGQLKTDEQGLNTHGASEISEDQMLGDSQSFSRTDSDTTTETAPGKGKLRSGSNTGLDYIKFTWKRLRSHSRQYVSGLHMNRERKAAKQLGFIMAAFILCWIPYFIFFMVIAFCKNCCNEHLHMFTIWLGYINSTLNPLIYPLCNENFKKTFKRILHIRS
row,Structure (SMILES),pKi
1,O=C(CCCCN1CCN(c2ccc(Cl)cc2)CC1)c1nc2ccccc2s1,7.34
2,O=C(CCCCN1CCC(c2ccccc2)CC1)c1nc2ccccc2s1,7.28

# Target: Sodium-dependent noradrenaline transporter (Homo sapiens, UniProt P23975)
# Conditions: not given
# Sodium-dependent noradrenaline transporter, sequence (P23975 whole entry): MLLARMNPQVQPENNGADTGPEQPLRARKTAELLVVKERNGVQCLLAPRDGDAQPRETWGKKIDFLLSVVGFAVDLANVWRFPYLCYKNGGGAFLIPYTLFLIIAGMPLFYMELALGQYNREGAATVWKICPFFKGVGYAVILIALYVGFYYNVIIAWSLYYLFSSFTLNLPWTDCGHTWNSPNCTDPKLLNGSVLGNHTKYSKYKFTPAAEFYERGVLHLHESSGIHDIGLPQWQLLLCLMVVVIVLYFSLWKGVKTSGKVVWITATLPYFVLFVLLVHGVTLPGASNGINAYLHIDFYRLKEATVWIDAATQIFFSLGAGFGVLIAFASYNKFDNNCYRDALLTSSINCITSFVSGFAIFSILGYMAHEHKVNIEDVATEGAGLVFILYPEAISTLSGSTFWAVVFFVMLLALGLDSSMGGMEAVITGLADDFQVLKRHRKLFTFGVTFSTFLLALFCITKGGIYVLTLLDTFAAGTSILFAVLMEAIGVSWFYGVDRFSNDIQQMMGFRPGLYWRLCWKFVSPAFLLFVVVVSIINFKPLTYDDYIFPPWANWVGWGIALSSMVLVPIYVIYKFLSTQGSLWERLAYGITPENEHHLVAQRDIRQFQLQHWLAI
row,Structure (SMILES),pKi
1,O=C(CCCCN1CCN(c2ccc(Cl)cc2)CC1)c1nc2ccccc2s1,< 5.00
2,O=C(CCCCN1CCC(c2ccccc2)CC1)c1nc2ccccc2s1,7.31

# Target: T3, 5-hydroxytryptamine receptor 2C
# Conditions: not given
# Remark: another data set of the same source
row,Structure (SMILES),Ki
1,Clc1ccc(N2CCCN(CCCc3nc4ccccc4s3)CC2)cc1,Not Active
2,OC1(c2ccc(Cl)cc2)CCN(CCCCc2nc3ccccc3s2)CC1,Not Active
3,O=C(CCCN1CCC(c2ccccc2)CC1)c1nc2ccccc2s1,Not Active
4,O=C(CCCN1CCN(c2ncccn2)CC1)c1nc2ccccc2s1,Not Active
5,O=C(CCCCN1CCC(n2c(=O)[nH]c3cc(Cl)ccc32)CC1)c1nc2ccccc2s1,Not Active
6,c1ccc2c(c1)CN(CCCCc1nc3ccccc3s1)C2,Not Active
7,O=C(CCCN1CCN(c2ccc(Cl)cc2)CC1)c1nc2ccccc2s1,Not Active
8,O=C(CCCN1CCN(c2ccccc2)CC1)c1nc2ccccc2s1,Not Active
9,O=C(CCCCN1CCC2(CC1)C(=O)NCN2c1ccccc1)c1nc2ccccc2s1,Not Active
10,O=C(CCCCN1Cc2ccccc2C1)c1nc2ccccc2s1,Not Active
11,O=C(CCCCN1CCN(c2ccc(Cl)cc2)CC1)c1nc2ccccc2s1,Not Active
12,O=C(CCCCN1CCN(c2ncccn2)CC1)c1nc2ccccc2s1,Not Active
